Measured values: patent US6689756B2, “Treatment of neurological disease” (Integra LifeSciences Corporation, priority 2001, dated 2004)

Experiment: oxygen carrying capacity of nutrient formulation
Format: physicochemical
Settings: F44E formulations compared with the perfluorodecalin nutrient solution of Bell et al., Neurology 37:133, 1987
Text: where m and n or independently at least 1 and m+n equals 6 to 10. Preferably, the double bond is trans. One preferred poly-fluorinated, oxygen-carrying compound is trans-Bis-perfluorobutyl ethylene (m and n each equal 4), which is also known as F44E. F44E formulations have a 25% greater oxygen carrying capacity than that of a prior nutrient solution made with perfluorodecalin, Bell et al., Neurology 37:133, 1987. Formulations comprising F44E are less viscous and relatively easier to perfuse.

SMILES: FC(F)(F)C(F)(F)C(F)(F)C(F)(F)/C=C/C(F)(F)C(F)(F)C(F)(F)C(F)(F)F [F44E, trans-Bis-perfluorobutyl ethylene]
- greater oxygen carrying capacity than that of a prior nutrient solution made with perfluorodecalin: 25%
